Measurements published in patent US20040074447A1, “Methods of reducing incidence of stillborn pigs by using progesterone receptor antagonists” (priority 2002, published 2004).
Several values for one entry are separate records, joined by “and”; a condition that tells them apart may be missing. Equal entries are not always repeated. Entries after “also recorded” stand apart in the source; their conditions may differ. Where two headings read alike, the source gives them in different places. Marks after values point to notes of the source that are not given here.

Legend:
sows in labor = conditions: 150 μg, sows in labor before birth of the first pig; cited from earlier work
swine = conditions: cited from earlier work
sheep = conditions: 5 or 10 mg/kg BW; cited from earlier work
[1] = relative to propranolol; cited from earlier work
[2] = system: pregnant crossbred female swine; test: Example 2: induction of farrowing in pregnant gilts, oral CP161,258 (two doses or single dose) or intramuscular porcine relaxin; assay type: in vivo; conditions: for effects on time to birth of the first pig, number born alive, or stillborns: 1200 U porcine relaxin IM on day 113; for Hr, Dose d 112 To 1st pig ± SD / Hr, Dose d 113 To 1st pig ± SD: mean ± SD; for Piglet data: Born alive / Piglet data: Mummies / Piglet data: Stillborn: mean; for Reason (animals with incomplete data) / Born Alive / Hr, 1st treatment to 1st pig / Mummies / Still-born: individual animals
Experimental: Animals. […] This BW was used to calculate the amount of test article to administer (T2 and T3).
Randomization of animals. Animals were ranked according to expected farrowing date and then randomly assigned to treatment within blocks of 4 animals each.
Test article administration. […] For treatment groups T2 and T3, test article was diluted (a suspension) to a concentration of 25 mg/ml in 50% propylene glycol and stored refrigerated (2-8° C.).
For treatment groups T2 and T3, animals were snared and test article was administered orally using a 60 ml syringe. […] One container of approximately 440 ml was mixed and used within each week of the 3 wk study. Each animal assigned to T2 or T3 also received approximately 30 ml of tap water to insure that test article was swallowed.
Porcine relaxin was diluted to a concentration of 1200 U/ml in sterile physiological saline on the first day of use. Diluted porcine relaxin was stored in a locked refrigerator and removed only when injections took place. Relaxin (1 ml-T4) was administered intramuscularly in the lower part of the ham of either leg with an 18-gauge, 1.5″ long needle attached to a 3 ml syringe.
Administration of test articles occurred between 7:30 am and 8:30 am on almost all days of the study.
Piglets. Response variables measured in this study were: hours from the 1st treatment to the birth of the 1st pig, number of piglets that were alive at birth (born alive), stillborn (normal appearance term piglet, but dead at time of birth), and mummies (smaller than littermates, decayed at birth). Animals were not processed (no iron shots, no clipping of needle teeth, no individual identification), but umbilical cords were clipped to […]. length if animals could not be euthanized within 2 days after birth.
Data/Analyses. […] Data were analyzed using a mixed model analysis with block as a random effect and treatment as a fixed effect (proc mixed, SAS).

[3] = system: pregnant crossbred female swine; assay type: in vivo
Description: The objectives of this study were to determine the effects of administration of the progesterone receptor antagonist CP161,258 on the concentration of progesterone, the time interval from the 1st administration of test article on day 112 to birth of the 1st pig, the time interval from the 2nd administration of test article to birth of the 1st pig, and the status of piglets at birth (alive, stillborn, mummies).
Animals. Twenty pregnant crossbred female swine were purchased and delivered to Terre Haute on approximately day 102-107 of gestation. These animals were placed in farrowing crates in building 608W. Animals assigned to T2 averaged 195 kg BW. Animals (sows and piglets) were euthanized within 48 hr post-farrowing or on day 116 post-mating. There was no estimate of pre-weaning mortality in this study.
Randomization of animals. Animals were ranked according to expected farrowing date and randomly assigned to treatment within blocks of 2 animals each.
Test article administration. […] For treatment group T2, test article was diluted to a concentration of 25 mg/ml in 50% propylene glycol and water, and stored refrigerated (2-8° C.). Test article was administered orally after the morning blood sample was collected. The volume administered was approximately 30 ml to deliver a dosage of 4 mg/kg BW. Animals were administered with approximately 30 ml of water following administration of test article.
Early/late farrowing. […] If animals farrowed before day 114, the final blood sample was collected after farrowing was complete.
(§1) Data/Analyses. Response variables measured in this study were: hours from the time of the 1st dosing on day 112 post-breeding to birth of the 1st pig, hours from the 2nd dosing on day 113 to birth of the 1st pig, number of piglets that were alive at birth (born alive), stillborn (normal appearance term piglet, but dead at time of birth), and mummies (smaller than littermates, decayed at birth). The variables were analyzed using a mixed model analysis (proc mixed, SAS) with block as a random effect and treatment as a fixed effect. Concentrations of progesterone were analyzed using a repeated measure mixed model analysis, with block as a random effect and treatment as a fixed effect.

progesterone in plasma = test: Example 1: progesterone in plasma by RIA around farrowing; assay type: in vivo, swine; conditions: for Mean concentration of progesterone in plasma: n in parentheses; for p4 = concentration of progesterone in plasma: trt 2, individual animals
Experimental: Blood samples. Blood samples were collected from all animals (including T1 and T2) prior to administration of test article at 7:30 am on days 112 and 113. In addition, a PM blood sample was collected beginning at approximately 1:30 pm on days 112 and 113. Additional blood samples were collected at 7:30 am and 1:30 pm on subsequent days (>or =day 114). The final blood sample was collected after farrowing was complete. All blood samples (7 ml) were collected using sodium heparin vacutainers. Samples were refrigerated, centrifuged, and plasma was separated within 2 hr after collection. One aliquot of each sample was sent to Cornell Veterinary Diagnostic Lab for progesterone analyses by RIA.
as §1

[4] = T4: 1200 U pRelaxin intramuscular day 113, counted from (day 113)
[5] = T4: 1200 U pRelaxin intramuscular day 113
[6] = Treatment 4: 1200 IU Relaxin intramuscular day 113
[7] = 4 mg/kg BW orally days 112 and 113
[8] = T2: 4 mg/kg BW CP161,258 orally D 112 + 113, mean ± SD, n in parentheses
[9] = T2: 4 mg/kg BW orally D 112 + 113, mean per litter
[10] = T2: 4 mg/kg BW CP161,258 oral D 112 + 113, counted from (day 112)
[11] = T2: 4 mg/kg BW oral D 112 + 113
[12] = T3: 8 mg/kg BW CP161,258 oral D 113, counted from (day 113)
[13] = Treatment 2: 4 mg/kg oral days 112 and 113, 4 mg/kg
[14] = Treatment 3: 8 mg/kg oral day 113, 8 mg/kg

CC(C)(C)NCC(O)c1cc(Cl)c(N)c(Cl)c1 (stereo not shown) [clenbuterol]
delay of parturition (sows in labor): up to 15 hr

C[C@]1(O)CC[C@H]2[C@@H]3CC[C@@]45O[C@]4(C)C(O)=C(C#N)C[C@]5(C)[C@H]3CC[C@@]21C [Epostane]
interval from oral administration to birth of the first pig (swine; oral, 5 or 10 mg/kg BW): about 34 hr
interval from oral administration to birth of lambs (sheep): 33 h

CC(C)NCC(O)COc1cccc2[nH]c3ccccc3c12 (stereo not shown) [carazolol]
membrane stabilizing potential, less than that of propranolol [1]: 13 fold

Porcine relaxin
effects on time to birth of the first pig, number born alive, or stillborns [2]: not effective
effects on time to birth of the first pig, number born alive, or stillborns ([2]; listed as porcine relaxin): did not have beneficial effects
Hr, Dose d 112 To 1st pig ± SD [2, 4]: 56 ± 26 (13) Hr
Hr, Dose d 113 To 1st pig ± SD [2, 4]: 56 ± 26^d (13) Hr
Piglet data: Born alive [2, 5]: 6.4 (12)
Piglet data: Mummies [2, 5]: 0.3 (12)
Piglet data: Stillborn [2, 5]: 1.6 (12)
Reason (animals with incomplete data) ([2]; T4 Relaxin): Dystocia (born alive, stillborns, mummy count; also recorded: Dystocia-(born alive, stillborns, mummy count
Born Alive [2, 6]: 6 (3×) and 3 and 8 and 4 (2×) and 9 (2×) and 1 and 14 and 7
Hr, 1st treatment to 1st pig [2, 6]: 10.9 h and 25.3 h and 34.2 h and 47.4 h and 48.5 h and 49.2 h and 49.7 h and 51 h and 69.9 h and 74.9 h and 77.2 h and 82.4 h and 106.3 h
Mummies [2, 6]: 2 and 0 (10×) and 1
Still-born [2, 6]: 5 and 0 (2×) and 1 (4×) and 2 (5×)

CC#CC1(O)CCC2C3CCC4=CC(=O)CCC4=C3C(c3ccc(N(C)C)cc3)CC21C (stereo not shown) [CP161,258, 11-(4-Dimethylamino-phenyl)-17-hydroxy-13-methyl-17-prop-1-ynyl-1,2,6,7,8,11,12,13,14,15,16,17-dodecahydro-cyclopenta[a]phenanthren-3-one]
time interval from the 1st administration to the onset of parturition, relative to non-medicated controls ([3]; 4 mg/kg BW days 112 and 113 of gestation): half
number of piglets born dead (stillborns), mean [3, 7]: 0.1 pigs/litter
percent of animals that farrowed the day following the first treatment (day 113, within 1 day) [3, 7]: 44% and 45%
percent of animals with onset of parturition within 2 days [3, 7]: 100%
percent of treated animals that farrowed on day 114 [3, 7]: 56%
Hr, 1st dose d 112 To 1st pig ± SD [3, 8]: 36 ± 15 (9) Hr
Hr, 2nd dose d 113 To 1st pig ± SD [3, 8]: 36 ± 15 (9) Hr
Piglet data: Born alive [3, 9]: 8.9 (9)
Piglet data: Mummies [3, 9]: 0 (9)
Piglet data: Stillborn [3, 9]: 0.1* (9)
Mummified fetuses ([3]; T2: 4 mg/kg orally days 112 and 113, individual animals): 0
concentrations of progesterone in plasma in the −24 hr period preceding parturition, compared to non-medicated controls (progesterone in plasma; 4 mg/kg orally days 112 and 113): remained higher
Mean concentration of progesterone in plasma (progesterone in plasma; Sample time 0 (immediately before farrowing), T2): 7.5 (9) ng/ml
Mean concentration of progesterone in plasma (progesterone in plasma; Sample time 1 (within 12 hr after farrowing was complete), T2): 1.5 (9) ng/ml
Mean concentration of progesterone in plasma (progesterone in plasma; Sample time −1 relative to farrowing, T2): 12.3* (9) ng/ml
Mean concentration of progesterone in plasma (progesterone in plasma; Sample time −2 relative to farrowing, T2): 14.0* (8) ng/ml
Mean concentration of progesterone in plasma (progesterone in plasma; Sample time −3 relative to farrowing, T2): 14.5 (5) ng/ml
Mean concentration of progesterone in plasma (progesterone in plasma; Sample time −4 relative to farrowing, T2 4 mg/kg orally days 112 and 113): 14.2 (2) ng/ml
p4 = concentration of progesterone in plasma (progesterone in plasma; time 0 (immediately before farrowing)): 5.76 ng/mL and 8.12 ng/mL and 5.62 ng/mL and 9.45 ng/mL and 13.37 ng/mL and 4.95 ng/mL and 9.41 ng/mL and 5.64 ng/mL and 7.17 ng/mL
p4 = concentration of progesterone in plasma (progesterone in plasma; time 1 (within 12 hr after farrowing was complete)): 2.05 ng/mL and 1.34 ng/mL and 0.82 ng/mL and 1.62 ng/mL and 1.95 ng/mL and 4.50 ng/mL and 1.64 ng/mL and 1.11 ng/mL and 0.79 ng/mL
p4 = concentration of progesterone in plasma (progesterone in plasma; time −1): 8.27 ng/mL and 13.76 ng/mL and 13.88 ng/mL and 15.46 ng/mL and 18.89 ng/mL and 7.63 ng/mL and 8.18 ng/mL and 10.70 ng/mL and 16.70 ng/mL
p4 = concentration of progesterone in plasma (progesterone in plasma; time −2): 12.42 ng/mL and 17.27 ng/mL and 13.89 ng/mL and 15.47 ng/mL and 13.96 ng/mL and 15.17 ng/mL and 10.92 ng/mL and 17.76 ng/mL
p4 = concentration of progesterone in plasma (progesterone in plasma; time −3): 14.93 ng/mL and 13.88 ng/mL and 15.28 ng/mL and 14.66 ng/mL and 16.68 ng/mL
p4 = concentration of progesterone in plasma (progesterone in plasma; time −4): 15.25 ng/mL and 13.49 ng/mL
Hr, Dose d 112 To 1st pig ± SD [2, 10]: 45 ± 26^a (13) Hr
Hr, Dose d 113 To 1st pig ± SD [2, 10]: 45 ± 26^b (13) Hr
Piglet data: Born alive [2, 11]: 9.2 (13)
Piglet data: Mummies [2, 11]: 0.4* (13)
Piglet data: Stillborn [2, 11]: 0.7 (13)
number of stillborns lower compared with T1 non-medicated controls ([2]; T2: 4 mg/kg days 112 and 113, numerically, not statistically): 0.4 pigs/litter
percent of animals that started farrowing on day 114 ([2]; T2: 4 mg/kg on days 112 and 113 (4/13)): 31%
percent of animals that started farrowing on day 113 ([2]; T2: 4 mg/kg on days 112 and 113 (7/13)): Fifty-four
Reason (animals with incomplete data) ([2]; T2 CP161,258 D 112 + 113): Dystocia
Hr, Dose d 112 To 1st pig ± SD [2, 12]: 33 ± 20 (13) Hr
Hr, Dose d 113 To 1st pig ± SD [2, 12]: 33 ± 20^c (13) Hr
percent of animals that started farrowing on day 114 ([2]; T3: 8 mg/kg BW on day 113 (11/13)): 85%
Piglet data: Born alive ([2]; T3: 8 mg/kg BW oral D 113): 8.6 (13)
Piglet data: Mummies ([2]; T3: 8 mg/kg BW oral D 113): 0.2 (13)
Piglet data: Stillborn ([2]; T3: 8 mg/kg BW oral D 113): 0.5 (13)
number of stillborns reduced compared with T1 non-medicated controls ([2]; T3: single dose 8 mg/kg BW day 113, numerically, not statistically): 0.6 pigs/litter
Born Alive [2, 13]: 8 and 13 (2×) and 10 (3×) and 9 (2×) and 7 and 2 and 12 and 6 and 11
Hr, 1st treatment to 1st pig [2, 13]: 22.5 h and 24.5 h and 26.4 h and 28.6 h and 28.9 h and 32.1 h and 33.6 h and 45.7 h and 46 h and 46.3 h and 49.1 h and 96.3 h and 101 h
Mummies [2, 13]: 0 (9×) and 2 and 1 (3×)
Still-born [2, 13]: 1 (9×) and 0 (4×)
Born Alive [2, 14]: 6 (3×) and 13 and 12 and 10 (3×) and 7 and 14 and 11 and 4 and 3
Hr, 1st treatment to 1st pig [2, 14]: 49 h and 96 h and 21.2 h and 23.7 h and 24.4 h and 24.5 h and 24.7 h and 25.1 h and 25.2 h and 25.3 h and 26.3 h and 27.1 h and 34.4 h and 93.8 h
Mummies [2, 14]: 0 (10×) and 1 (3×)
Still-born [2, 14]: 0 (8×) and 2 (2×) and 1 (3×)
percent of animals that farrowed 24 to 27 hr post-dosing ([2]; single dose of 8 mg/kg BW): 70%
percent of animals that farrowed between 21 and 35 hr after dosing ([2]; single dose of 8 mg/kg BW): 85%
induction of parturition (swine; 4 mg/kg body weight on days 111 and 112 post-breeding): effectively induced parturition
